From patent US20250188123A1, “PROTEASE INHIBITORS” (Regents of the University of Minnesota, priority 2022, published 2025)
Where two headings read alike, the source gives them in different places. *1 amine or outer side, *2 acyl side, *3 side chain or, on linkers, in order; H or OH if unused. Where a SMILES comes first, the peptide text is derived from it. [ ]: non-standard residue; d: D form. The star is where a group is joined. ξ: configuration not given here. X1 = Cc1ccc2c(c1)CCN([*:1])[C@@H]2C(=O)[*:2]; ξ(indoline-2-carboxyl) = O=C(O)C1Cc2ccccc2N1; ξTHIQ1CO(6-Me) = Cc1ccc2c(c1)CCNC2C(=O)O; X3 = O=C([C@@H]1Cc2ccccc2N1[*:1])[*:2]; Aad = N[C@@H](CCCC(=O)O)C(=O)O; Thr(3ξ) = CC(O)[C@H](N)C(=O)O; Bn = c1ccc(C*)cc1

Experiments:
human caspase-3 = target: T1, human caspase-3 (Homo sapiens, UniProt P42574); assay: Fluorescent enzyme assay, Casp3 (AFC substrate AcDEVD-AFC); type: biochemical
T1 construct: made in house; host or cells: E. coli Rosetta 2 pLysS DE3
T1 sequence (P42574 29-277): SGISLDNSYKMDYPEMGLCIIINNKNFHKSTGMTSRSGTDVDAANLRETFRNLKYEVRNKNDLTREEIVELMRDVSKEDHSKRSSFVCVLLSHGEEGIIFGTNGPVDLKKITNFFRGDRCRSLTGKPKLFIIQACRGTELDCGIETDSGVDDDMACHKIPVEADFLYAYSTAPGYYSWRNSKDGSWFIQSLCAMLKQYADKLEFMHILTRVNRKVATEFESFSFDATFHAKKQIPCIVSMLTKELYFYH
From the text: (§1) Human recombinant Casp1, 6, 7, and 9 were purchased from BioVision (Milpitas/CA, USA). AFC fluorogenic substrates and control peptides (AcYVAD-CHO, AcVDVAD-CHO, AcDEVD-CHO, AcVEID-CHO, and AcLEHD-CHO) were purchased from Bachem (Torrance/CA, USA). The pET23b vector encoding human caspase-3 was a gift of Dr. Michelle Arkin at University of California, San Francisco. Expression and purification of Casp3 was guided by previously described protocols (Denault J-B, Salvesen G S., Current Protocols in Protein Science, 2002, 30(1), 21.13. 1-21.13. 15). Briefly, the plasmid was transformed into E. coli Rosetta 2 pLyss DE3 cells that were cultured at 1 L scale in shake flasks. Five hours post induction with IPTG, cells were harvested through centrifugation (4000 g for 10 minutes at 4° C.), lysed by sonication, and centrifuged again for 30 minutes at 20000 g. Supernatant was resuspended in buffer (100 mM Tris pH 8.0, 500 mM NaCl). Purification was achieved by nickel-affinity chromatography followed by ion-exchange chromatography. Protein was diluted to 0.5 mg/mL and stored at −80° C. in 100 mM Tris, pH 8.0 supplemented with 10% glycerol. The typical yield for the expression, isolation, and purification was approximately 3 mg/L. The DNA encoding human caspase-2 (hCASP2, amino acids 170-452, free of the N-terminal caspase activation and recruitment domain) open reading frame (ORF) was amplified via polymerase chain reaction (PCR) from full-length hCASP2 cDNA (Origene, Rockville, MD; Cat #SC321316) using following primers: forward, 5′-[…]-3′; reverse, 5′-[…]-3′. The PCR fragment was then cloned into the pET23b vector (Millipore Sigma, Burlington, MA), and DNA sequence was verified by classic Sanger sequencing analyses. Site-directed mutageneses were carried out using a QuikChange II XL site-directed mutagenesis kit (Agilent Technologies, Santa Clara, CA; Cat #200522) according to the manufacturer's instruction. Expression of recombinant hCASP2 was induced using 150 μM isopropyl-β-D-thiogalactopyranoside (IPTG) (Promega, Madison, WI) in the BL21(DE3) E. coli strain (Millipore Sigma) at 16° C. for 14 hours while shaking at 250 rpm. Cells were then harvested via centrifugation at 6,000 g, 4° C. for 15 minutes, followed by lysis via sonication. Proteins were initially purified using HisPur Ni-NTA resin (Thermo Fisher Scientific, Waltham, MA) followed by metal chelating chromatography (5 mL HiTrap Chelating HP columns (GE Healthcare Life Sciences, Piscataway, NJ)). Further purification was carried out using anion exchange chromatography (5 mL HiTrap Q HP columns (GE Healthcare Life Sciences)) for hCASP2. Proteins were stored in 1× phosphate-buffered saline (pH 7.4) at 10 mg/mL (concentration determined using a BCA assay (Thermo Fisher Scientific)), −80° C. until further use.
(§2) KM values were determined experimentally to be the following: Casp1: 5.9 μM; Casp2: 37.1 μM; Casp3: 7.6 μM; Casp6: 14.5 μM; Casp7: 13.8 μM; Casp9: 149.1 μM. Enzymes were diluted in buffer: 100 mM MES (pH 6.5) for Casp2 and or 100 mM HEPES (pH 7.0) for all other caspases, plus 150 mM NaCl, 0.1% CHAPS, 1.5% sucrose, 10 mM DTT. Enzyme concentrations were 0.05 U/well for Casp1, 6, and 7; 0.5 U/well for Casp9, 20 nM/well for Casp2, and 2 nM/well for Casp3. Enzyme in buffer (19 μL) was added per well in a black 384-well Corning 4514 assay plate. Test compounds were serially diluted in dimethyl sulfoxide (DMSO) and plated in duplicate into a Corning 3656 transfer plate. Test compound was added to assay plates in 0.5 μL aliquots per well and mixed 10 times using a BiomekFX (Beckman Coulter). Compound and enzyme mixture was incubated at 37° C. for 5 minutes for aldehyde warheads and 45 minutes for cyano warheads. […]

human caspase-2 = target: T2, human caspase-2 (Homo sapiens, UniProt P42575); assay: Fluorescent enzyme assay, Casp2 (AFC substrate Z-VDVAD-AFC); type: biochemical; conditions: for Ki (Casp3) / Ki (Casp2): selectivity Casp2 over Casp3
T2 construct: inferred from pET23b, XhoI reverse primer without stop codon, Ni-NTA purification) (C); made in house; host or cells: E. coli BL21(DE3)
T2 sequence (P42575 170-452): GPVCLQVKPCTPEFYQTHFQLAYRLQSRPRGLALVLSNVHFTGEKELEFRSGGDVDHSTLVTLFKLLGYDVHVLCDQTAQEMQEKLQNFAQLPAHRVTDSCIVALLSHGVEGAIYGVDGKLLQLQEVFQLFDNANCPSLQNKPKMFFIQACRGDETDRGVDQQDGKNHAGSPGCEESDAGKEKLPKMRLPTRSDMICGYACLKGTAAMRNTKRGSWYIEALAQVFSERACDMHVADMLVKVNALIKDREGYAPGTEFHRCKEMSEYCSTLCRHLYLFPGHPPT
From the text: as §1, §2

[1] = mean ± SEM of N independent experiments, each in duplicate or triplicate, read-out: pKi ± SEM Casp 3 (converted)
[2] = mean ± SEM of N independent experiments, each in duplicate or triplicate, read-out: pKi ± SEM Casp 2 (converted)

SMILES	Ki (human caspase-3) [µM]	Ki (human caspase-2) [µM]	Ki (Casp3) / Ki (Casp2) (human caspase-2)	Ki (human caspase-3; [1]) [µM]	Ki (human caspase-2; [2]) [µM]
Cc1ccc2c(c1)CCN(C(=O)[C@@H](NC(=O)[C@H](CCCC(=O)O)NC(=O)[C@H]1Nc3ccc(F)cc3C1(C)C)C(C)C)C2C(=O)N[C@H](C=O)CC(=O)O (stereo partly drawn) [Compound 13, (S)-6-(((S)-1-((S)-1-(((S)-1-carboxy-3-oxopropan-2-yl)carbamoyl)-6-methyl-3,4-dihydroisoquinolin-2(1H)-yl)-3-methyl-1-oxobutan-2-yl)amino)-5-((S)-5-fluoro-3,3-dimethylindoline-2-carboxamido)-6-oxohexanoic acid hydrotrifluoroacetate]	> 100	0.646	155	–	–
Cc1ccc2c(c1)CCN(C(=O)CCCCNC(=O)[C@@H]1Cc3ccccc3N1)[C@@H]2C(=O)N[C@H](C=O)CC(=O)O [Compound 4, (S)-3-((S)-2-(5-((S)-indoline-2-carboxamido)pentanoyl)-6-methyl-1,2,3,4-tetrahydroisoquinoline-1-carboxamido)-4-oxobutanoic acid hydrotrifluoroacetate]	–	–	–	> 100	> 100
CC(=O)N1c2ccccc2C[C@H]1C(=O)N[C@@H](CCCC(=O)O)C(=O)N[C@H](C(=O)N1CCc2cc(C)ccc2[C@H]1C(=O)N[C@H](C=O)CC(=O)O)C(C)C [Compound 9, (S)-5-((S)-1-acetylindoline-2-carboxamido)-6-(((S)-1-((S)-1-(((S)-1-carboxy-3-oxopropan-2-yl)carbamoyl)-6-methyl-3,4-dihydroisoquinolin-2(1H)-yl)-3-methyl-1-oxobutan-2-yl)amino)-6-oxohexanoic acid]	–	–	263	> 100	0.38
Cc1ccc2c(c1)CCN(C(=O)[C@@H](NC(=O)[C@H](CCCC(=O)O)NC(=O)C1Cc3ccccc3N1)C(C)C)[C@@H]2C(=O)N[C@H](C=O)CC(=O)O (stereo partly drawn) [Compound 2, (S)-6-(((S)-1-((S)-1-(((S)-1-carboxy-3-oxopropan-2-yl)carbamoyl)-6-methyl-3,4-dihydroisoquinolin-2(1H)-yl)-3-methyl-1-oxobutan-2-yl)amino)-5-((S)-indoline-2-carboxamido)-6-oxohexanoic acid hydrotrifluoroacetate] (H-[ξ(indoline-2-carboxyl)][Aad]V[X1]D-aldehyde)	> 31.6	0.0398	794	–	–
Cc1ccc2c(c1)CCN(C(=O)CNC(=O)CNC(=O)[C@@H]1Cc3ccccc3N1)[C@@H]2C(=O)N[C@H](C=O)CC(=O)O [Compound 3, (S)-3-((S)-2-(((S)-indoline-2-carbonyl)glycylglycyl)-6-methyl-1,2,3,4-tetrahydroisoquinolin-1-carboxamido)-4-oxobutanoic acid hydrotrifluoroacetate]	–	–	–	> 100	> 100
CC(=O)N1c2ccccc2C[C@H]1C(=O)N[C@@H](CCCC(=O)O)C(=O)N[C@H](C(=O)N1CCc2cc(C)ccc2[C@H]1C(=O)N[C@H](C=O)CC(=O)O)[C@H](C)OCc1ccccc1 [Compound 8, (S)-5-((S)-1-acetylindoline-2-carboxamido)-6-(((2S,3S)-3-(benzyloxy)-1-((S)-1-(((S)-1-carboxy-3-oxopropan-2-yl)carbamoyl)-6-methyl-3,4-dihydroisoquinolin-2(1H)-yl)-1-oxobutan-2-yl)amino)-6-oxohexanoic acid]	–	–	17	> 100	6.03
CC(=O)N1c2ccccc2C[C@H]1C(=O)N[C@@H](CCCC(=O)O)C(=O)NCC(=O)N1CCc2cc(C)ccc2[C@H]1C(=O)N[C@H](C=O)CC(=O)O [Compound 7, (S)-5-((S)-1-acetylindoline-2-carboxamido)-6-((2-((S)-1-(((S)-1-carboxy-3-oxopropan-2-yl)carbamoyl)-6-methyl-3,4-dihydroisoquinolin-2(1H)-yl)-2-oxoethyl)amino)-6-oxohexanoic acid]	–	–	3388	> 100	0.0295
CC(=O)N1c2ccccc2C[C@H]1C(=O)N[C@@H](CCCC(=O)O)C(=O)N[C@H](C(=O)N1CCc2cc(C)ccc2[C@H]1C(=O)N[C@H](C=O)CC(=O)O)C(C)(C)C [Compound 10, (S)-5-((S)-1-acetylindoline-2-carboxamido)-6-(((S)-1-((S)-1-(((S)-1-carboxy-3-oxopropan-2-yl)carbamoyl)-6-methyl-3,4-dihydroisoquinolin-2(1H)-yl)-3,3-dimethyl-1-oxobutan-2-yl)amino)-6-oxohexanoic acid]	–	–	47	> 100	2.14
Cc1ccc2c(c1)CCN(C(=O)CNC(=O)[C@H](CCCC(=O)O)NC(=O)[C@@H]1Cc3ccccc3N1)[C@@H]2C(=O)N[C@H](C=O)CC(=O)O [Compound 5, (S)-6-((2-((S)-1-(((S)-1-carboxy-3-oxopropan-2-yl)carbamoyl)-6-methyl-3,4-dihydroisoquinolin-2(1H)-yl)-2-oxoethyl)amino)-5-((S)-indoline-2-carboxamido)-6-oxohexanoic acid hydrotrifluoroacetate]	5.5	0.017	324	–	–
Cc1ccc2c(c1)CCN(C(=O)[C@@H](NC(=O)[C@H](CCCC(=O)O)NC(=O)[C@@H]1Cc3ccccc3N1)C(C)OCc1ccccc1)C2C(=O)N[C@H](C=O)CC(=O)O (stereo partly drawn) [Compound 6, (S)-6-(((2S,3S)-3-(benzyloxy)-1-((S)-1-(((S)-1-carboxy-3-oxopropan-2-yl)carbamoyl)-6-methyl-3,4-dihydroisoquinolin-2(1H)-yl)-1-oxobutan-2-yl)amino)-5-((S)-indoline-2-carboxamido)-6-oxohexanoic acid hydrotrifluoroacetate] (H-[X3][Aad][Thr(3ξ)](Bn)[ξTHIQ1CO(6-Me)]D-aldehyde)	33.1	2.29	14	–	–
Cc1ccc2c(c1F)CCN(C(=O)[C@@H](NC(=O)[C@H](CCCC(=O)O)NC(=O)[C@H]1Nc3ccc(F)cc3C1(C)C)C(C)C)C2C(=O)N[C@H](C=O)CC(=O)O (stereo partly drawn) [Compound 15, (S)-6-(((S)-1-((S)-1-(((S)-1-carboxy-3-oxopropan-2-yl)carbamoyl)-5-fluoro-6-methyl-3,4-dihydroisoquinolin-2(1H)-yl)-3-methyl-1-oxobutan-2-yl)amino)-5-((S)-5-fluoro-3,3-dimethylindoline-2-carboxamido)-6-oxohexanoic acid hydrotrifluoroacetate]	> 100	0.174	575	–	–
